Test results: patent US20250099596A1, “TETRAHYDRONAPHTHALENE COMPOUND, AND PREPARATION METHOD THEREFOR AND USE THEREOF IN MEDICINE” (Jiangsu Hengrui Pharmaceuticals Co., Ltd., priority 2021, published 2025)

Experiments:
[1] = Pharmacokinetic evaluation, C57 mouse test; type: in vivo; conditions: C57 mice; for AUC(0-t): read-out: Area under curve AUC0-t; for half-life: read-out: Half-life T1/2 (converted); for Cmax: read-out: Plasma concentration Cmax
Procedure: (§1) With C57 mice as test animals, the plasma concentration of the compound of Example 26-1 was determined by LC/MS/MS at different time points after intragastric (i.g.)/intravenous (i.v.) administration to C57 mice. The pharmacokinetic behavior of the compound of the present disclosure in C57 mice was studied and its pharmacokinetic profile was evaluated.
Eighteen female C57 mice were evenly divided into 2 groups and fasted overnight, and the 2 groups were dosed intragastrically and intravenously, respectively. The mice were provided by Zhejiang Vital River Laboratory Animal Technology Co., Ltd.
An appropriate amount of the compound of Example 26-1 was weighed out and mixed with 5% DMSO+5% Tween 80+90% normal saline to make a 0.1 mg/mL colorless clear solution (for the intragastric administration group) and a 0.1 mg/mL colorless clear solution (for the intravenous administration group).
The intragastric administration group: the dose was 2.0 mg/kg, and the volume was 0.2 mL/10 g.
The intravenous administration group: the dose was 1.0 mg/kg, and the volume was 0.1 mL/10 g.
(§2) The intragastric administration group: Blood (0.1 mL) was collected into EDTA-K2 anticoagulation tubes before administration and 0.25 h, 0.5 h, 1.0 h, 2.0 h, 4.0 h, 6.0 h, 8.0 h, 11.0 h and 24.0 h after administration and centrifuged at 10,000 rpm for 1 min (4° C.). The plasma was separated within 1 h and stored at −20° C. before analysis. The process from blood collection to centrifugation was performed in an ice bath. Two hours after administration, feeding was resumed.
The intravenous administration group: Blood was collected before administration and 5 min, 15 min, 0.5 h, 1.0 h, 2.0 h, 4.0 h, 8.0 h, 11.0 h and 24 h after administration and processed as in the intragastric administration group.
The plasma concentration of the test compound was determined after administration of different concentrations of the test compound to C57 mice: plasma samples (25 μL) were collected from C57 mice at various time points after administration, proteins were precipitated with 200 μL of acetonitrile, and 50 μL of camptothecin (100 ng/mL) was added. The mixtures were vortexed for 5 min and centrifuged at 4000 rpm for 10 min. […] of supernatant was collected for LC-MS/MS analysis.

[2] = Pharmacokinetic evaluation, beagle test; type: in vivo; conditions: beagles; for AUC(0-t): read-out: Area under curve AUC0-t; for half-life: read-out: Half-life T1/2 (converted); for Cmax: read-out: Plasma concentration Cmax
Procedure: as §1, with “With beagles” for “With C57 mice”, “plasma concentrations” for “plasma concentration”, “26-1 and Comparative Example 1 were” for “26-1 was”, “to beagles.” for “to C57 mice.”, “in beagles” for “in C57 mice”
The compound of Example 26-1 and Comparative Example 1 (see patent WO2018102725A1, Example 411), whose structure is shown below:
Sixteen beagles, of which half were male and half female, were evenly divided into 4 groups. The beagles were provided by Shanghai Medicilon Inc. The 4 groups were fasted overnight and then dosed intragastrically and intravenously.
Certain amounts of the compound of Example 26-1 and the compound of Comparative Example 1 were weighed out and mixed with 5% (v/v) DMSO+30% (v/v) PG+30% (v/v) PEG400+35% (v/v) normal saline to make 0.4 mg/mL clear solutions (for the intragastric administration groups) and 0.25 mg/mL clear solutions (for the intravenous administration groups).
The intragastric administration groups: the dose was 2.0 mg/kg, and the volume was 5.0 mL/kg.
The intravenous administration groups: the dose was 0.5 mg/kg, and the volume was 2.0 mL/kg.
as §2, with “Blood (1.0” for “Blood (0.1”, “collected from the jugular vein or the forelimb vein” for “collected”, “h, 12.0” for “h, 11.0”, “for 5” for “for 1”, “at −80°” for “at −20°”, “bath. Three” for “bath. Two”
The intravenous administration groups: Blood was collected before administration and 5 min, 0.25 h, 0.5 h, 1.0 h, 2.0 h, 4.0 h, 8.0 h, 12.0 h and 24 h after administration and processed as in the intragastric administration groups.
The plasma concentrations of the test compounds were determined after administration of different concentrations of the test compounds to beagles: plasma samples (50 μL) were collected from beagles at various time points after administration, and proteins were precipitated with 500 μL of methanol (containing 100 ng/mL internal standard Verapamil) for each of the samples; the mixtures were vortexed for 1 min and centrifuged at 18,000 g for 7 min. 500 μL of supernatant was transferred to a 96-well plate. 1 μL of supernatant was collected for LC/MS/MS analysis.

[3] = female, mouse, plasma, iv, i.v., 1.0 mg/kg
[4] = female, mouse, plasma, po, i.g., 2.0 mg/kg
[5] = both sexes, beagle, dog, plasma, iv, i.v., 0.5 mg/kg
[6] = both sexes, beagle, dog, plasma, po, i.g., 2.0 mg/kg

Clearance CL/F ([1]; i.v., 1.0 mg/kg): 15.4 mL/min/kg
AUC(0-t) [1, 3]: 1070 ng·h/mL
half-life [1, 3]: 4 h
Cmax [1, 3]: 1220 ng/mL
Vd/F ([1]; female, mouse, plasma, po, i.g., 2.0 mg/kg, read-out: Apparent distribution volume Vz/F): 28.3 L/kg
AUC(0-t) [1, 4]: 517 ng·h/mL
CL/F ([1]; female, mouse, plasma, po, i.g., 2.0 mg/kg, read-out: Clearance CL/F): 62.1 mL/min/kg
half-life [1, 4]: 5.3 h
Cmax [1, 4]: 59 ng/mL
Clearance CL/F ([2]; i.v., 0.5 mg/kg): 1.7 mL/min/kg
AUC(0-t) [2, 5]: 4070 ng·h/mL
half-life [2, 5]: 9.7 h
Cmax [2, 5]: 1600 ng/mL
Vd/F ([2]; both sexes, beagle, dog, plasma, po, i.g., 2.0 mg/kg, read-out: Apparent distribution volume Vz/F): 5.67 L/kg
AUC(0-t) [2, 6]: 4820 ng·h/mL
CL/F ([2]; both sexes, beagle, dog, plasma, po, i.g., 2.0 mg/kg, read-out: Clearance CL/F): 6.2 mL/min/kg
half-life [2, 6]: 10.4 h
Cmax [2, 6]: 436 ng/mL
Compound: CC(C)C[C@H]1CCc2cc(O)ccc2[C@H]1c1ccc(N2CCC(CN3CCN(c4ccc5c(c4)CN([C@H]4CCC(=O)NC4=O)C5=O)CC3)CC2)cc1 [Example 26-1, (S)-3-(5-(4-((1-(4-((1R,2R)-6-Hydroxy-2-isobutyl-1,2,3,4-tetrahydronaphthalen-1-yl)phenyl)piperidin-4-yl)methyl)piperazin-1-yl)-1-oxoisoindolin-2-yl)piperidine-2,6-dione]
